Source: patent publication US8168651B2, “Protein kinase modulators” (Cylene Pharmaceuticals, Inc., priority 2008, dated 2012)

Tests used:
Assay in all cases: Standardized radiometric kinase assays, percentage of activity at 0.5 μM;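 further: Read-out is ³³P-labelled substrate protein phosphorylated by each kinase, captured on filters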
[1] = molecular target: each individual kinase of the panel (Homo sapiens, UniProt P07947); conditions: Yes(h)
[2] = molecular target: each individual kinase of the panel (Homo sapiens, UniProt P51812); conditions: Rsk2(h)
[3] = molecular target: each individual kinase of the panel (Homo sapiens, UniProt P10721, V560G); conditions: cKit(V560G)(h)
[4] = molecular target: each individual kinase of the panel (Homo sapiens, UniProt P16591); conditions: Fer(h)
[5] = molecular target: each individual kinase of the panel (Homo sapiens, UniProt Q13464); conditions: ROCK-I(h)
[6] = molecular target: each individual kinase of the panel (Homo sapiens, UniProt P00533, L858R/T790M); conditions: EGFR(T790M,L858R)(h)
[7] = molecular target: each individual kinase of the panel (Homo sapiens, UniProt Q15418); conditions: Rsk1(h)
[8] = molecular target: each individual kinase of the panel (Homo sapiens, UniProt P04049); conditions: c-RAF(h)
[9] = molecular target: each individual kinase of the panel (Homo sapiens, UniProt P54756); conditions: EphA5(h)
[10] = molecular target: each individual kinase of the panel (Homo sapiens, UniProt Q9UEE5); conditions: DRAK1(h)
[11] = molecular target: each individual kinase of the panel (Homo sapiens, UniProt P49137); conditions: MAPKAP-K2(h)
[12] = molecular target: each individual kinase of the panel (Homo sapiens, UniProt Q86V86); conditions: Pim-3(h)
[13] = molecular target: each individual kinase of the panel (Homo sapiens, UniProt Q92630); conditions: DYRK2(h)
[14] = molecular target: each individual kinase of the panel (Homo sapiens, UniProt P00533, L858R); conditions: EGFR(L858R)(h)
[15] = molecular target: each individual kinase of the panel (Homo sapiens, UniProt Q06418); conditions: Rse(h)
[16] = molecular target: each individual kinase of the panel (Homo sapiens, UniProt P10721, D816H); conditions: cKit(D816H)(h)
[17] = molecular target: each individual kinase of the panel (Homo sapiens, UniProt P42345); conditions: mTOR(h)
[18] = molecular target: each individual kinase of the panel (Homo sapiens, UniProt O43293); conditions: ZIPK(h)
[19] = molecular target: each individual kinase of the panel (Homo sapiens, UniProt O15111); conditions: IKKα(h)
[20] = molecular target: each individual kinase of the panel (Homo sapiens, UniProt O43318); conditions: TAK1(h)
[21] = molecular target: each individual kinase of the panel (Homo sapiens, UniProt Q13043); conditions: MST1(h)
[22] = molecular target: each individual kinase of the panel (Homo sapiens, UniProt P11309); conditions: Pim-1(h)
[23] = molecular target: each individual kinase of the panel (Homo sapiens, UniProt Q02763); conditions: Tie2(h)
[24] = molecular target: each individual kinase of the panel (Homo sapiens, UniProt P09619); conditions: PDGFRβ(h)
[25] = molecular target: each individual kinase of the panel (Homo sapiens, UniProt Q9HCP0); conditions: CK1γ1(h)
[26] = molecular target: each individual kinase of the panel (Homo sapiens, UniProt Q99683); conditions: ASK1(h)
[27] = molecular target: each individual kinase of the panel (Homo sapiens, UniProt Q13976); conditions: PKG1α(h)
Chain of each individual kinase of the panel (Homo sapiens, UniProt Q13976) (Q13976 2-671 limits assumed): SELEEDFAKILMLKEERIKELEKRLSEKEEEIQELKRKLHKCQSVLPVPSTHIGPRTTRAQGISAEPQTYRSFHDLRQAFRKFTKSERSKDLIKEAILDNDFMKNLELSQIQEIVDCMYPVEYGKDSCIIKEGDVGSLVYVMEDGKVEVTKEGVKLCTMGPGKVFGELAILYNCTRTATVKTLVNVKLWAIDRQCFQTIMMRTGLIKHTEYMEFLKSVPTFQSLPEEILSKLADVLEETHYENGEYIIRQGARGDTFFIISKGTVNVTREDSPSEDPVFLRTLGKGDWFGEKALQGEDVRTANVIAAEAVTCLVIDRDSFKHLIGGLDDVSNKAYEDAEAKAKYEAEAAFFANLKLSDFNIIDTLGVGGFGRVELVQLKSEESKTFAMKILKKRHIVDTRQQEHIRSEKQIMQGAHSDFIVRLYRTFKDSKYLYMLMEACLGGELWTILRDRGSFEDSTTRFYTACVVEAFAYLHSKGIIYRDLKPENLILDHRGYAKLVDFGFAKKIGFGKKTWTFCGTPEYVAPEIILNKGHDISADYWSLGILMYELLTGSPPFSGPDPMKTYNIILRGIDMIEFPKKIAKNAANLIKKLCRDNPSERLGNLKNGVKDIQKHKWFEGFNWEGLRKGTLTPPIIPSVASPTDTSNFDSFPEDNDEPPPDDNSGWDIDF

Chain of each individual kinase of the panel (Homo sapiens, UniProt Q02763) (Q02763 23-1124 limits assumed): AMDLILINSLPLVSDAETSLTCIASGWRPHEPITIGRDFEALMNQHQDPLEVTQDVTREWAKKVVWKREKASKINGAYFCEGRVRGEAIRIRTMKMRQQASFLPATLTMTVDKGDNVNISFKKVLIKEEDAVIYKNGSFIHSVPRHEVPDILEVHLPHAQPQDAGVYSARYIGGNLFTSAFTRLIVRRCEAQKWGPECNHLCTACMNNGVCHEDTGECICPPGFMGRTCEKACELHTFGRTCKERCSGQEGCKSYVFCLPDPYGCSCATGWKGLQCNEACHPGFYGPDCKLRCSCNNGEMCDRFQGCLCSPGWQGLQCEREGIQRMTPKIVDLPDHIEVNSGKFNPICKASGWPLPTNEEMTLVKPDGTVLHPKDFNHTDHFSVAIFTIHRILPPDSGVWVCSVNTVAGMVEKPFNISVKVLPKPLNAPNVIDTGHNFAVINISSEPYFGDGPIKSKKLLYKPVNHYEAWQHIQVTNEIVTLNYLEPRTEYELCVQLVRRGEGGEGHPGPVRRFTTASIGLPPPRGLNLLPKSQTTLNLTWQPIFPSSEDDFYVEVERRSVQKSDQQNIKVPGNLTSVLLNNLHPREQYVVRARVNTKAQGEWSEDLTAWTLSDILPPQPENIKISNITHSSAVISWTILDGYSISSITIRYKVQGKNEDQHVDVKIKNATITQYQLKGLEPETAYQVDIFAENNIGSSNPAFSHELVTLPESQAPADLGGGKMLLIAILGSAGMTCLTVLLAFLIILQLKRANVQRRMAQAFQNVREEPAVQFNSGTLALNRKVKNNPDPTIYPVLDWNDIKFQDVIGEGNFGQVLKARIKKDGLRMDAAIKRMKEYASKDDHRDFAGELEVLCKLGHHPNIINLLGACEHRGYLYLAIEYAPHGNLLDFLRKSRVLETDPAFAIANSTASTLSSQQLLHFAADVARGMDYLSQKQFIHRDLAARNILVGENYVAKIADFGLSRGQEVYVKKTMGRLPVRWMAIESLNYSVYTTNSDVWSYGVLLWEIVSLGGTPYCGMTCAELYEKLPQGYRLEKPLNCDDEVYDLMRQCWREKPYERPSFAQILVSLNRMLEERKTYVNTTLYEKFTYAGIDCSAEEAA
Chain of each individual kinase of the panel (Homo sapiens, UniProt P54756) (P54756 25-1037 limits assumed): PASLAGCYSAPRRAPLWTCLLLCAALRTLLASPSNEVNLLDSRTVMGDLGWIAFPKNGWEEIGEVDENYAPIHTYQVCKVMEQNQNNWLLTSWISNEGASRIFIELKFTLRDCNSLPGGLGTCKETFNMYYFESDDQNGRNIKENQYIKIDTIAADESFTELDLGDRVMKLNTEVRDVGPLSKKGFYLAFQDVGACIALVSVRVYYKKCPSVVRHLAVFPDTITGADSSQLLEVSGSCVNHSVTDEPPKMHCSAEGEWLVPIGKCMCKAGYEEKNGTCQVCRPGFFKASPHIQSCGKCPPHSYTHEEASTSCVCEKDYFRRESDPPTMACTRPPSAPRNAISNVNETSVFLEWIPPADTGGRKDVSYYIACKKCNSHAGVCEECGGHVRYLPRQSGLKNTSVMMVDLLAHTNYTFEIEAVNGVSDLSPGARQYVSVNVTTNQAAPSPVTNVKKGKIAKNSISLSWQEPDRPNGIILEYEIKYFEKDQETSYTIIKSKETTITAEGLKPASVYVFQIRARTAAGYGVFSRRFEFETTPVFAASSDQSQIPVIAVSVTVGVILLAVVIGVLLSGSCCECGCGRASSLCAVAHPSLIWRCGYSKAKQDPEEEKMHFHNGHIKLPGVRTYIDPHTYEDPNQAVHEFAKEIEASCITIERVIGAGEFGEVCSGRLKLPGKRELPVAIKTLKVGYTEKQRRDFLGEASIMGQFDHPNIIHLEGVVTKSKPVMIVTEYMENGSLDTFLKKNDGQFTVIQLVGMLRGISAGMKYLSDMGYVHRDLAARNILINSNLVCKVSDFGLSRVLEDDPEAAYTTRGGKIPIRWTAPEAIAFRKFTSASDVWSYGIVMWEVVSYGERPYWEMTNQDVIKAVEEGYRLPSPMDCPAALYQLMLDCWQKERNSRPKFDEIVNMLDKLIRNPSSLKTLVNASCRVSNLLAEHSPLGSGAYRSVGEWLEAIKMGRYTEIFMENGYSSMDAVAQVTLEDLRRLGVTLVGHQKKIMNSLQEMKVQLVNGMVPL
Chain of each individual kinase of the panel (Homo sapiens, UniProt P07947) (P07947 2-543 limits assumed): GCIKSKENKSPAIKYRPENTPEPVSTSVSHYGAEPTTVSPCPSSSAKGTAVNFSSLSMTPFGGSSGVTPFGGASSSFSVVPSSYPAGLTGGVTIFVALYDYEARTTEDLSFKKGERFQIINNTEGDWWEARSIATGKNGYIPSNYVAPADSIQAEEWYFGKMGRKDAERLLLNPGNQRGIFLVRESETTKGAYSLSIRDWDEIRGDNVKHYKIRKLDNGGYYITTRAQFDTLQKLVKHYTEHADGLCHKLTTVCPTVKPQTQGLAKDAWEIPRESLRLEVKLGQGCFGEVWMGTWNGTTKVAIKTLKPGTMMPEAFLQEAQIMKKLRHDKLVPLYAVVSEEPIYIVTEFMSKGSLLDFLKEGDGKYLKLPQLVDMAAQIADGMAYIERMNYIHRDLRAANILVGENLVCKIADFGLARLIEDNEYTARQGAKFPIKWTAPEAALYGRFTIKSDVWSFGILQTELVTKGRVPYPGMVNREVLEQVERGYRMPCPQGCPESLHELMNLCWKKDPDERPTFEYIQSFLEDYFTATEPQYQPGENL
Chain of each individual kinase of the panel (Homo sapiens, UniProt P10721, D816H) (P10721 26-976 D816H limits assumed): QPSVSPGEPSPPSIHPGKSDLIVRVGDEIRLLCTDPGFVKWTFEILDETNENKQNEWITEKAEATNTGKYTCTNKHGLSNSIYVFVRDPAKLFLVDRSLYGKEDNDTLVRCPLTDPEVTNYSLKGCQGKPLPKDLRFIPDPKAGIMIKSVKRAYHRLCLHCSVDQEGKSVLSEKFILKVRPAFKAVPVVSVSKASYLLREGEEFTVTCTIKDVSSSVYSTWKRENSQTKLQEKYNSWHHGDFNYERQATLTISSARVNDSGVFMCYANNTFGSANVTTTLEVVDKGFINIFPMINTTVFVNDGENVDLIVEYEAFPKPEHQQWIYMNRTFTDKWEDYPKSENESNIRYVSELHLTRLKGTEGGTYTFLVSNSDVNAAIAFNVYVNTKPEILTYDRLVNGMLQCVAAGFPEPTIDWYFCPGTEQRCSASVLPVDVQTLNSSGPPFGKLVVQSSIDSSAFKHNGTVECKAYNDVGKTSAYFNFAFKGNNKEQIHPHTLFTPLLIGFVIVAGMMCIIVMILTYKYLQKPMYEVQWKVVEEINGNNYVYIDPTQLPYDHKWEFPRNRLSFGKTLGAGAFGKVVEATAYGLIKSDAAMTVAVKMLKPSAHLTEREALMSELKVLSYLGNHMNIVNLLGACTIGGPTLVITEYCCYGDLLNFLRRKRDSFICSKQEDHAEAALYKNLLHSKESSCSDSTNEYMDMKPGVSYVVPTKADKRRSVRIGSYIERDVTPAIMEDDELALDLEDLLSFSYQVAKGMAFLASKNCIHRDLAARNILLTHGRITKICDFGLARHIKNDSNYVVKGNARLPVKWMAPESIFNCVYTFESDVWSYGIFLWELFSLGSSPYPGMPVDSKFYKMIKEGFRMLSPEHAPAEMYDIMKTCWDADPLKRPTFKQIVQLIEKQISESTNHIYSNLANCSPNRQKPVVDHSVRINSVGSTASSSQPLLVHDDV
Chain of each individual kinase of the panel (Homo sapiens, UniProt P10721, V560G) (P10721 26-976 V560G limits assumed): as the sequence (P10721 26-976 D816H limits assumed) above, with V535G, H791D counted along it

**Q.** Which “% Activity” value [1] does the source give for `NC(=O)c1cccc2c1nc(Nc1cccc(Cl)c1)c1ccncc12` [B] here?
**A.** 44%

**Q.** What about the “% Activity” value [2] of the same molecule?
**A.** 40%

**Q.** What about the “% Activity” value [3] of the same molecule?
**A.** 33%

**Q.** What about the “% Activity” value [4] of the same molecule?
**A.** 103%

**Q.** What about the “% Activity” value [5] of the same molecule?
**A.** 97%

**Q.** What about the “% Activity” value [6] of the same molecule?
**A.** 59%

**Q.** And the “% Activity” value [7]?
**A.** 21%

**Q.** What about the “% Activity” value [8] of the same molecule?
**A.** 69%

**Q.** And the “% Activity” value [9]?
**A.** 93%

**Q.** And the “% Activity” value [10]?
**A.** 15%

**Q.** What about the “% Activity” value [11] of the same molecule?
**A.** 104%

**Q.** And the “% Activity” value [12]?
**A.** 65%

**Q.** What about the “% Activity” value [13] of the same molecule?
**A.** 5%

**Q.** What about the “% Activity” value [14] of the same molecule?
**A.** 56%

**Q.** And the “% Activity” value [15]?
**A.** 87%

**Q.** And the “% Activity” value [16]?
**A.** 9%

**Q.** And the “% Activity” value [17]?
**A.** 101%

**Q.** What about the “% Activity” value [18] of the same molecule?
**A.** 19%

**Q.** What about the “% Activity” value [19] of the same molecule?
**A.** 99%

**Q.** What about the “% Activity” value [20] of the same molecule?
**A.** 79%

**Q.** What about the “% Activity” value [21] of the same molecule?
**A.** 80%

**Q.** And the “% Activity” value [22]?
**A.** 9%

**Q.** What about the “% Activity” value [23] of the same molecule?
**A.** 93%

**Q.** What about the “% Activity” value [24] of the same molecule?
**A.** 94%

**Q.** And the “% Activity” value [25]?
**A.** 71%

**Q.** And the “% Activity” value [26]?
**A.** 93%

**Q.** What about the “% Activity” value [27] of the same molecule?
**A.** 34%
